Patent US20230220443A1, “CHARACTERIZATION OF S-ADENOSYL-L-METHIONINE-CONSUMING ENZYMES WITH 1-STEP EZ-MTASE: A UNIVERSAL COUPLED-ASSAY” (ALBERT EINSTEIN COLLEGE OF MEDICINE, priority 2017, published 2023)

Legend:
[1] = target: T1, CePRMT5 (Caenorhabditis elegans, UniProt P46580); assay: 1-Step EZ-MTase UV-based coupled assay, CePRMT5 kinetics; type: biochemical; details: for Km / kcat: pH=7.60, co-substrate saturating, 4 μM TM0936, 263 nm (282 nm for 8-aza-SAM); for catalytic efficiency: saturating H4 peptide
T1 construct: made in house
T1 sequence (P46580 1-734): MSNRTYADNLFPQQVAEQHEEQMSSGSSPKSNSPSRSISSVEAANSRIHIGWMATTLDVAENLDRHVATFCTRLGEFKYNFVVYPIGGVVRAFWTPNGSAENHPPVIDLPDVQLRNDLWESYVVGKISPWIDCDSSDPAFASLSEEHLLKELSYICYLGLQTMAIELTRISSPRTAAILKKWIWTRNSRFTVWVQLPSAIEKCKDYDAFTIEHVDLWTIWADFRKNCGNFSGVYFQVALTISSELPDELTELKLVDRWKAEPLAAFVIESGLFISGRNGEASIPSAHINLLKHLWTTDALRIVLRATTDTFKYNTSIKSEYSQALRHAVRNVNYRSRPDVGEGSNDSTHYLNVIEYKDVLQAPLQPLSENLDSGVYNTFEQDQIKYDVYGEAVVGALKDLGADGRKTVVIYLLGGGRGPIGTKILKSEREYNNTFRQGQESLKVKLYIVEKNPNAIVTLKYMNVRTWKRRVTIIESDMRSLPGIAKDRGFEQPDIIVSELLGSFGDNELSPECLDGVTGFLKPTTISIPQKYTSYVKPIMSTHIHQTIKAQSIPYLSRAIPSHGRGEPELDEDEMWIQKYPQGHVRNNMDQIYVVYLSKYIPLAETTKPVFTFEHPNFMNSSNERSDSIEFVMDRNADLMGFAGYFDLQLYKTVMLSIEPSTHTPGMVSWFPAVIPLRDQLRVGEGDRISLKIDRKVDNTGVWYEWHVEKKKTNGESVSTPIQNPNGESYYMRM
Method: The 250-μL reaction mixtures from a same row contained 50 mM phosphate buffer pH=7.60, 1 mM βME, 10% glycerol, 4 μM coupling deaminase TM0936, 300 nM CePRMT5 and various peptide concentrations (5-180 μM; in the first well, peptide acceptor was omitted to account for background signal—natural decomposition of SAM). The methyltransfer reactions started upon addition of SAM (25 μM saturating final concentration) and absorbance was recorded.
The 250-μL reaction mixtures from a same row contained 50 mM phosphate buffer pH=7.60, 1 mM βME, 10% glycerol, 4 μM coupling deaminase TM0936, 300 nM CePRMT5 and various SAM concentrations (2.35-47.0 μM). […] Initial rates were first corrected for background signal, then plotted against SAM concentrations and fitted to the Morrison kinetic model to yield corresponding kinetic parameters.
(§1) Kinetic behavior for 8-aza-SAM against MTases (acceptor sat.)—Briefly, kinetic parameters were determined at 20° C. in a UV-Star 96-well flat bottom plate (Greiner Bio-One, #655801) by continuous monitoring of absorbance at 282 nm using a SpectraMax M5 instrument (Molecular Devices). As for SAM experiments, the measurements consisted of two experimental subsets: MTase reactions (both 8-aza-SAM and acceptor added) and MTase blanks (8-aza-SAM was added without acceptor to account for natural 8-aza-SAM decomposition). The 250-μL (60-μL) reaction mixtures from a same row contained 50 mM phosphate buffer pH=7.60 (7.80), 1 mM βME, 10% glycerol (5% glycerol, 100 μM MgCl2), 4 μM coupling deaminase TM0936, either 1.5 μM CePRMT5 or 402 nM TbPRMT7 (or 610 nM GsSDMT) and various 8-aza-SAM concentrations. […] Initial rates were first corrected for background signal, then plotted against 8-aza-SAM concentrations and fitted to the Michaelis-Menten equation to yield corresponding kinetic parameters.

[2] = target: T2, TbPRMT7 (Trypanosoma brucei brucei, UniProt Q582G4); assay: 1-Step EZ-MTase UV-based coupled assay, TbPRMT7 kinetics (incl. ionic strength); type: biochemical; details: for Km / kcat: pH=7.60, 25 mM phosphate, co-substrate saturating
T2 construct: made in house
Method: Briefly, the 250-μL reaction mixtures from a same row contained 25 mM phosphate buffer pH=7.60, 1 mM βME, 10% glycerol, 4 μM coupling deaminase TM0936, 1.0 μM TbPRMT7 and various peptide concentrations (16.6-243.3 μM; in the first well, peptide acceptor was omitted to account for background signal—natural decomposition of SAM). Reactions started upon addition of SAM (25.8 μM saturating final concentration) and absorbance was recorded. […] Fit to the Michaelis-Menten model (Eq. 5) provided corresponding kinetic parameters:
Briefly, the measurements consisted of two experimental subsets: MTase reactions (both SAM and peptide added) and MTase blanks (SAM was added without peptide to account for natural SAM decomposition). The 250-μL reaction mixtures from a same row contained 25 mM phosphate buffer pH=7.60, 1 mM βME, 10% glycerol, 4 μM coupling deaminase TM0936, 402 nM TbPRMT7 and various SAM concentrations (1.53-20.0 μM). […] Initial rates were first corrected for background signal, then plotted against SAM concentrations and fitted to the Morrison kinetic model to yield corresponding kinetic parameters.
as §1, with “parameters. The kinetic data from CePRMT5 were fit to the following Eq. 6 to reflect substrate inhibition observed at higher 8-aza-SAM concentration:” for “parameters.”
Experiments were conducted following TbPRMT7 protocol above. Briefly, the 250-μL reaction mixtures from a same row contained either 25, 50, 75 or 100 mM phosphate buffer pH=7.60, 1 mM βME, 10% glycerol, 4 μM coupling deaminase TM0936, 1.0 μM TbPRMT7 and various peptide concentrations (16.6-243.3 μM; in the first well, peptide acceptor was omitted to account for background signal—natural decomposition of SAM). Reactions started upon addition of SAM (25.8 μM saturating final concentration) and absorbance was recorded. […] The four fits to the Michaelis-Menten equation (kcat fixed at 29 h^−1) provided corresponding Km values and established impact of ionic strength onto this kinetic parameter.

T2 sequence (Q582G4 whole entry): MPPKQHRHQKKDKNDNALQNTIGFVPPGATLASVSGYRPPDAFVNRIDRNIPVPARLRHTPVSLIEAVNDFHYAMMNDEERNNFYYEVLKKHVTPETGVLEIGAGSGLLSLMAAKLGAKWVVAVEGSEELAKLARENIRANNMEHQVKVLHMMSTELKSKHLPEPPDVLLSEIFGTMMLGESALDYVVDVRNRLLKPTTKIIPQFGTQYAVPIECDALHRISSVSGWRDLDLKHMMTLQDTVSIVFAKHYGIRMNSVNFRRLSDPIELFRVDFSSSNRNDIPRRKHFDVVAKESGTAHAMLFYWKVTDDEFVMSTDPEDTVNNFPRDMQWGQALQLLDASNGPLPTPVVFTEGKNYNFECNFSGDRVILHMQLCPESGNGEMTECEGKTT

Structure (SMILES)	substrate inhibition constant (Ks / Kf) ([1]; 282 nm, pH=7.60, H4(1-20) 104 μM) [µM]	Km [1] [µM]	kcat [1] [s⁻¹]	catalytic efficiency [1] [M⁻¹ s⁻¹]	substrate inhibition (inhibitory behavior of the analog) [2]	Km [2] [µM]	kcat [2] [s⁻¹]
C[S+](CC[C@H](N)C(=O)O)C[C@H]1O[C@@H](n2nnc3c(N)ncnc32)[C@H](O)[C@@H]1O (stereo partly drawn) [8-aza-SAM, S-8-aza-adenosyl-L-methionine]	67 ± 42	35 ± 19	0.00417 ± 0.0017	120	not observed	15.3 ± 0.7	0.00639 ± 0.00011
C[S+](CC[C@H](N)C(=O)O)C[C@H]1O[C@@H](n2cnc3c(N)ncnc32)[C@H](O)[C@@H]1O (stereo partly drawn) [SAM, S-adenosyl-L-methionine]		6.8 ± 0.3	0.00886 ± 0.00014	1300		1.1 ± 0.2	0.00619 ± 0.00017
